Laboratory results reported in US20220389061A1, “IMMUNOMODULATORS” (priority 2019, published 2022).
Where two headings read alike, the source gives them in different places. Starred links: 1 amine or outer side, 2 acyl side, 3 side chain; linkers in the order of their positions; H or OH if unused. Positions of bridges follow the written chain, without caps; N, C: chain ends. Non-standard residues stand in square brackets, D forms with d. Residues, ends and D or L forms follow the SMILES beside them. Groups on a side chain read outwards from the residue. *: point of attachment. Trp(1-CH2CO2Me) = COC(=O)Cn1cc(C[C@H](N)C(=O)O)c2ccccc21; Trp(1-CH2COOH) = N[C@@H](Cc1cn(CC(=O)O)c2ccccc12)C(=O)O; X79 = CCn1c2ccccc2c2cc(NC(=S)*)ccc21; X88 = Cc1cc([N+](=O)[O-])ccc1NC(=S)*; X1 = S=C(Nc1ccc2c(c1)Cc1ccccc1-2)*; X75 = S=C(Nc1ccc(C2CC2)c2ccccc12)*; Hyp = O=C(O)[C@@H]1C[C@@H](O)CN1; X32 = c1ccc2c(c1)Cc1cc(N*)ccc1-2; X34 = O=C(c1c2ccccc2cc2ccccc12)*; X70 = Cc1coc2c(F)cc(NC(=S)*)cc12; X10 = S=C(Nc1ccc(N2CCOCC2)cc1)*; X19 = CCOC(=O)c1ccc(NC(=S)*)cc1; NH(3-MeOPh) = COc1cccc(N*)c1; NMeNle = CCCC[C@H](NC)C(=O)O; X7 = S=C(Nc1ccc2cc[nH]c2c1)*; NMeA = CN[C@@H](C)C(=O)O; Dab = NCC[C@H](N)C(=O)O; Dap = NC[C@H](N)C(=O)O; X21 = S=C(Nc1ccccn1)*; CO = O=C([*:1])[*:2]

Molecular target: T1, PD-1/PD-L1 (Homo sapiens, UniProt Q9NZQ7)
T1 construct: TVMV protease site linker (C); made in house; host or cells: HEK293T cells
Test: PD-1/PD-L1 Homogenous Time-Resolved Fluorescence (HTRF) binding assay
Description: The ability of the compounds of formula (I) to bind to PD-L1 was investigated using a PD-1/PD-L1 Homogenous Time-Resolved Fluorescence (HTRF) binding assay.
The interaction of PD-1 and PD-L1 can be assessed using soluble, purified preparations of the extracellular domains of the two proteins. The PD-1 and PD-L1 protein extracellular domains were expressed as fusion proteins with detection tags, for PD-1, the tag was the Fc portion of Immunoglobulin (PD-1-Ig) and for PD-L1 it was the 6 histidine motif (PD-L1-His). All binding studies were performed in an HTRF assay buffer consisting of dPBS supplemented with 0.1% […] bovine serum albumin and 0.05% (v/v) Tween-20. For the h/PD-L1-His binding assay, inhibitors were pre-incubated with PD-L1-His (10 nM final) for 15 m in 4 μl of assay buffer, followed by addition of PD-1-Ig (20 nM final) in 1 μl of assay buffer and further incubation for 15 m. HTRF detection was achieved using europium crypate-labeled anti-Ig (1 nM final) and allophycocyanin (APC) labeled anti-His (20 nM final). Antibodies were diluted in HTRF detection buffer and 5 μl was dispensed on top of the binding reaction. […] Additional binding assays were established between the human proteins PD-1-Ig/PD-L2-His (20 & 5 nM, respectively) and CD80-His/PD-L1-Ig (100 & 10 nM, respectively). […]

[1] = PD-L1-His 10 nM pre-incubated with inhibitor, PD-1-Ig 20 nM, read-out: HTRF IC50

T1 sequence (Q9NZQ7 18-239): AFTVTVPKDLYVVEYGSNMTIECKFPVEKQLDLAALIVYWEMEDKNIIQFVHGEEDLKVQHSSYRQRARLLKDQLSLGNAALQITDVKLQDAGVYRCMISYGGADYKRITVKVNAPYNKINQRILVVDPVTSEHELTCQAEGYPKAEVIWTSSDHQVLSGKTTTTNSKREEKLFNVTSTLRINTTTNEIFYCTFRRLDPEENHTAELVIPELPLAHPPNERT

`CCCC[C@H]1C(=O)N(C)[C@@H](CCCC)C(=O)N[C@@H](CC(C)C)C(=O)N[C@H](C(=O)NCC(N)=O)CSCC(=O)N[C@@H](Cc2ccc(O)cc2)C(=O)N(C)[C@@H](C)C(=O)N[C@@H](CC(N)=O)C(=O)N2CCC[C@H]2C(=O)N[C@@H](CNC(=S)Nc2ccc(C(=O)OCC)cc2)C(=O)N[C@@H](CC(C)C)C(=O)N2C[C@H](O)C[C@H]2C(=O)N[C@@H](Cc2c[nH]c3ccccc23)C(=O)N[C@@H](CCN)C(=O)N[C@@H](Cc2cn(CC(=O)O)c3ccccc23)C(=O)N1C` [Example 1042] ({CH2CO}-Y[NMeA]NP[Dap](X19)L[Hyp]W[Dab][Trp(1-CH2COOH)][NMeNle][NMeNle]LCG-NH2; thioether N-14) showed an IC50 [1] of 4 nM.
`CCCC[C@H]1C(=O)N(C)[C@@H](CCCC)C(=O)N[C@@H](CC(C)C)C(=O)N[C@H](C(=O)NCC(N)=O)CSCC(=O)N[C@@H](Cc2ccc(O)cc2)C(=O)N(C)[C@@H](C)C(=O)N[C@@H](CC(N)=O)C(=O)N2CCC[C@H]2C(=O)N[C@@H](CNC(=S)Nc2ccccn2)C(=O)N[C@@H](CC(C)C)C(=O)N2C[C@H](O)C[C@H]2C(=O)N[C@@H](Cc2c[nH]c3ccccc23)C(=O)N[C@@H](CCNC(=S)Nc2ccccn2)C(=O)N[C@@H](Cc2cn(CC(=O)O)c3ccccc23)C(=O)N1C` [Example 1021] ({CH2CO}-Y[NMeA]NP[Dap](X21)L[Hyp]W[Dab](X21)[Trp(1-CH2COOH)][NMeNle][NMeNle]LCG-NH2; thioether N-14) was tested, and the IC50 [1] was 4.2 nM.
`CCCC[C@H]1C(=O)N(C)[C@@H](CCCC)C(=O)N[C@@H](CC(C)C)C(=O)N[C@H](C(=O)NCC(N)=O)CSCC(=O)N[C@@H](Cc2ccc(O)cc2)C(=O)N(C)[C@@H](C)C(=O)N[C@@H](CC(N)=O)C(=O)N2CCC[C@H]2C(=O)N[C@@H](CNC(=S)Nc2ccc3c(c2)Cc2ccccc2-3)C(=O)N[C@@H](CC(C)C)C(=O)N2C[C@H](O)C[C@H]2C(=O)N[C@@H](Cc2c[nH]c3ccccc23)C(=O)N[C@@H](CCNC(=S)Nc2ccc3c(c2)Cc2ccccc2-3)C(=O)N[C@@H](Cc2cn(CC(=O)O)c3ccccc23)C(=O)N1C` [Example 2007] ({CH2CO}-Y[NMeA]NP[Dap](X1)L[Hyp]W[Dab](X1)[Trp(1-CH2COOH)][NMeNle][NMeNle]LCG-NH2; thioether N-14) was tested, and the IC50 [1] was 13.3 nM.
Molecule `CCCC[C@H]1C(=O)N(C)[C@@H](CCCC)C(=O)N[C@@H](CC(C)C)C(=O)N[C@H](C(=O)NCC(N)=O)CSCC(=O)N[C@@H](Cc2ccc(O)cc2)C(=O)N(C)[C@@H](C)C(=O)N[C@@H](CC(N)=O)C(=O)N2CCC[C@H]2C(=O)N[C@@H](CNC(=O)Nc2cccc(OC)c2)C(=O)N[C@@H](CC(C)C)C(=O)N2C[C@H](O)C[C@H]2C(=O)N[C@@H](Cc2c[nH]c3ccccc23)C(=O)N[C@@H](CCNC(=O)Nc2cccc(OC)c2)C(=O)N[C@@H](Cc2cn(CC(=O)O)c3ccccc23)C(=O)N1C` [Example 1140] ({CH2CO}-Y[NMeA]NP[Dap]([CO-NH(3-MeOPh)])L[Hyp]W[Dab]([CO-NH(3-MeOPh)])[Trp(1-CH2COOH)][NMeNle][NMeNle]LCG-NH2; thioether N-14) has an IC50 [1] of 6 nM.
`CCCC[C@H]1C(=O)N(C)[C@@H](CCCC)C(=O)N[C@@H](CC(C)C)C(=O)N[C@H](C(=O)NCC(N)=O)CSCC(=O)N[C@@H](Cc2ccc(O)cc2)C(=O)N(C)[C@@H](C)C(=O)N[C@@H](CC(N)=O)C(=O)N2CCC[C@H]2C(=O)N[C@@H](CNC(=O)Nc2ccc3c(c2)Cc2ccccc2-3)C(=O)N[C@@H](CC(C)C)C(=O)N2C[C@H](O)C[C@H]2C(=O)N[C@@H](Cc2c[nH]c3ccccc23)C(=O)N[C@@H](CCN)C(=O)N[C@@H](Cc2cn(CC(=O)O)c3ccccc23)C(=O)N1C` [Example 2009] ({CH2CO}-Y[NMeA]NP[Dap]([CO-X32])L[Hyp]W[Dab][Trp(1-CH2COOH)][NMeNle][NMeNle]LCG-NH2; thioether N-14) was tested, and the IC50 was 3.6 nM.
`CCCC[C@H]1C(=O)N(C)[C@@H](CCCC)C(=O)N[C@@H](CC(C)C)C(=O)N[C@H](C(=O)NCC(N)=O)CSCC(=O)N[C@@H](Cc2ccc(O)cc2)C(=O)N(C)[C@@H](C)C(=O)N[C@@H](CC(N)=O)C(=O)N2CCC[C@H]2C(=O)N[C@@H](CNC(=S)Nc2ccc(C3CC3)c3ccccc23)C(=O)N[C@@H](CC(C)C)C(=O)N2C[C@H](O)C[C@H]2C(=O)N[C@@H](Cc2c[nH]c3ccccc23)C(=O)N[C@@H](CCN)C(=O)N[C@@H](Cc2cn(CC(=O)O)c3ccccc23)C(=O)N1C` [Example 3044] ({CH2CO}-Y[NMeA]NP[Dap](X75)L[Hyp]W[Dab][Trp(1-CH2COOH)][NMeNle][NMeNle]LCG-NH2; thioether N-14) was tested, and the IC50 [1] was 3 nM.
For `CCCC[C@H]1C(=O)N(C)[C@@H](CCCC)C(=O)N[C@@H](CC(C)C)C(=O)N[C@H](C(=O)NCC(N)=O)CSCC(=O)N[C@@H](Cc2ccc(O)cc2)C(=O)N(C)[C@@H](C)C(=O)N[C@@H](CC(N)=O)C(=O)N2CCC[C@H]2C(=O)N[C@@H](CNC(=S)Nc2cc(F)c3occ(C)c3c2)C(=O)N[C@@H](CC(C)C)C(=O)N2C[C@H](O)C[C@H]2C(=O)N[C@@H](Cc2c[nH]c3ccccc23)C(=O)N[C@@H](CCN)C(=O)N[C@@H](Cc2cn(CC(=O)O)c3ccccc23)C(=O)N1C` [Example 3054] ({CH2CO}-Y[NMeA]NP[Dap](X70)L[Hyp]W[Dab][Trp(1-CH2COOH)][NMeNle][NMeNle]LCG-NH2; thioether N-14), the IC50 [1] was 1.3 nM.
In the case of `CCCC[C@H]1C(=O)N(C)[C@@H](CCCC)C(=O)N[C@@H](CC(C)C)C(=O)N[C@H](C(=O)NCC(N)=O)CSCC(=O)N[C@@H](Cc2ccc(O)cc2)C(=O)N(C)[C@@H](C)C(=O)N[C@@H](CC(N)=O)C(=O)N2CCC[C@H]2C(=O)N[C@@H](CNC(=S)Nc2ccc(N3CCOCC3)cc2)C(=O)N[C@@H](CC(C)C)C(=O)N2C[C@H](O)C[C@H]2C(=O)N[C@@H](Cc2c[nH]c3ccccc23)C(=O)N[C@@H](CCNC(=S)Nc2ccc(N3CCOCC3)cc2)C(=O)N[C@@H](Cc2cn(CC(=O)O)c3ccccc23)C(=O)N1C` [Example 1127] ({CH2CO}-Y[NMeA]NP[Dap](X10)L[Hyp]W[Dab](X10)[Trp(1-CH2COOH)][NMeNle][NMeNle]LCG-NH2; thioether N-14), the IC50 [1] is reported as 3 nM.
`CCCC[C@H]1C(=O)N(C)[C@@H](CCCC)C(=O)N[C@@H](CC(C)C)C(=O)N[C@H](C(=O)NCC(N)=O)CSCC(=O)N[C@@H](Cc2ccc(O)cc2)C(=O)N(C)[C@@H](C)C(=O)N[C@@H](CC(N)=O)C(=O)N2CCC[C@H]2C(=O)N[C@@H](CNC(=S)Nc2ccc([N+](=O)[O-])cc2C)C(=O)N[C@@H](CC(C)C)C(=O)N2C[C@H](O)C[C@H]2C(=O)N[C@@H](Cc2c[nH]c3ccccc23)C(=O)N[C@@H](CCN)C(=O)N[C@@H](Cc2cn(CC(=O)O)c3ccccc23)C(=O)N1C` [Example 1072] ({CH2CO}-Y[NMeA]NP[Dap](X88)L[Hyp]W[Dab][Trp(1-CH2COOH)][NMeNle][NMeNle]LCG-NH2; thioether N-14) gave an IC50 [1] of 4.9 nM.
Molecule `CCCC[C@H]1C(=O)N(C)[C@@H](CCCC)C(=O)N[C@@H](CC(C)C)C(=O)N[C@H](C(=O)NCC(N)=O)CSCC(=O)N[C@@H](Cc2ccc(O)cc2)C(=O)N(C)[C@@H](C)C(=O)N[C@@H](CC(N)=O)C(=O)N2CCC[C@H]2C(=O)N[C@@H](CNC(=O)c2c3ccccc3cc3ccccc23)C(=O)N[C@@H](CC(C)C)C(=O)N2C[C@H](O)C[C@H]2C(=O)N[C@@H](Cc2c[nH]c3ccccc23)C(=O)N[C@@H](CCNC(=O)c2c3ccccc3cc3ccccc23)C(=O)N[C@@H](Cc2cn(CC(=O)OC)c3ccccc23)C(=O)N1C` [Example 2006] ({CH2CO}-Y[NMeA]NP[Dap](X34)L[Hyp]W[Dab](X34)[Trp(1-CH2CO2Me)][NMeNle][NMeNle]LCG-NH2; thioether N-14) has an IC50 [1] of 1590 nM.
With `CCCC[C@H]1C(=O)N(C)[C@@H](CCCC)C(=O)N[C@@H](CC(C)C)C(=O)N[C@H](C(=O)NCC(N)=O)CSCC(=O)N[C@@H](Cc2ccc(O)cc2)C(=O)N(C)[C@@H](C)C(=O)N[C@@H](CC(N)=O)C(=O)N2CCC[C@H]2C(=O)N[C@@H](CNC(=S)Nc2ccc3cc[nH]c3c2)C(=O)N[C@@H](CC(C)C)C(=O)N2C[C@H](O)C[C@H]2C(=O)N[C@@H](Cc2c[nH]c3ccccc23)C(=O)N[C@@H](CCNC(=S)Nc2ccc3cc[nH]c3c2)C(=O)N[C@@H](Cc2cn(CC(=O)O)c3ccccc23)C(=O)N1C` [Example 3002] ({CH2CO}-Y[NMeA]NP[Dap](X7)L[Hyp]W[Dab](X7)[Trp(1-CH2COOH)][NMeNle][NMeNle]LCG-NH2; thioether N-14) the IC50 [1] was 4.3 nM.
`CCCC[C@H]1C(=O)N(C)[C@@H](CCCC)C(=O)N[C@@H](CC(C)C)C(=O)N[C@H](C(=O)NCC(N)=O)CSCC(=O)N[C@@H](Cc2ccc(O)cc2)C(=O)N(C)[C@@H](C)C(=O)N[C@@H](CC(N)=O)C(=O)N2CCC[C@H]2C(=O)N[C@@H](CNC(=S)Nc2ccc3c(c2)c2ccccc2n3CC)C(=O)N[C@@H](CC(C)C)C(=O)N2C[C@H](O)C[C@H]2C(=O)N[C@@H](Cc2c[nH]c3ccccc23)C(=O)N[C@@H](CCN)C(=O)N[C@@H](Cc2cn(CC(=O)O)c3ccccc23)C(=O)N1C` [Example 2014] ({CH2CO}-Y[NMeA]NP[Dap](X79)L[Hyp]W[Dab][Trp(1-CH2COOH)][NMeNle][NMeNle]LCG-NH2; thioether N-14) was tested, and the IC50 [1] was 3.8 nM.
